Source: patent US8735382B2, “Infusion and injection solution of levodopa” (Dizlin Medical Design AB, priority 2004, dated 2014)
“Also recorded” adds a separate entry of the source.

Assays:
[1] = dissolved in HCl and diluted with glucose, Levodopa only active ingredient; cited from earlier work
[2] = cited from earlier work
PD patients = assay: Continuous intravenous infusion of Levodopa in PD patients; type: in vivo, human
Method: Continuous infusion of Levodopa has been given to PD patients during 12 hours a day for 10 days. The daily dosage of Levodopa was 608 mg and the infusion rate was 51 mg/h. Fifty % of the patients received traditional oral administration of Carbidopa and 50% received Benserazide.

[3] = Solubility of Levodopa in HCl and after raising the pH with glucose; type: physicochemical
Method: Levodopa can be dissolved in HCl up to 100 mg/mL without any precipitation. To raise the pH with glucose in a way according to the invention and still get a stabile solution, it is possible to obtain 10 mg/mL Levodopa, and with 2 mg/mL Carbidopa addition 20 mg/mL Levodopa. A precipitate appears at 30 mg/mL Levodopa in the presence of 3 mg/mL Carbidopa. The steps of producing the solutions of the invention are made rather quickly up to the addition of glucose.

patient = assay: Subcutaneous continuous infusion of Levodopa in a patient; type: in vivo, human
Text: Tests have been made with subcutaneous infusion. […] The patient was further treated intravenously another day, with continuous Levodopa infusion.

In the case of `N[C@@H](Cc1ccc(O)c(O)c1)C(=O)O` [Levodopa, 3-(3,4-dihydroxiphenyl)-L-alanine], the “Levodopa concentration above which Levodopa precipitates” value [1] is listed as over 5 mg/mL, the “delay in concentration levels between plasma and CNS” value ([2]; in vivo) is listed as “about 90 minutes” and the “fraction of the total dose that enters the blood circulation” value ([2]; oral administration) is listed as “approximately 10%”. The “follow-up time at which the long-term effect was stable” value (PD patients; after the concluded infusion) was 6-10 months, the “clinical fluctuations (dyskinesia and bradykinesia)” value (PD patients; intravenous, 12 hours a day for 10 days, 608 mg daily, seventeen patients, preliminary) was “both bradykinesia and above all dyskinesia decline; also recorded: pronounced decrease in clinical fluctuations” and the “duration of the long-lasting effect” value (PD patients; intravenous, 12 hours for 10 days) was “at least 5 months”. The “dyskinesia during infusion treatment, single case” value (PD patients; person, PD for 20 years) was “dyskinesia disappeared almost completely”, the “therapeutic interval from analysis of Levodopa in plasma” value (PD patients; plasma, not uniform in the material) was “widening of the therapeutic interval” and the “required oral Levodopa dosage, post-treatment (mean)” value (PD patients; seventeen patients, after intravenous infusion treatment) was 773 mg/day. For the same compound, the “required oral Levodopa dosage, pre-treatment (mean)” value (PD patients; seventeen patients, before intravenous infusion treatment) was 1003 mg/day, the “Levodopa concentration dissolved without any precipitation” value ([3]; in HCl) was “up to 100 mg/mL” and the “Levodopa concentration at which a precipitate appears” value ([3]; in the presence of 3 mg/mL Carbidopa) was 30 mg/mL. The “Levodopa concentration obtainable as stabile solution” value ([3]; pH raised with glucose according to the invention, no Carbidopa) was 10 mg/mL, the “Levodopa concentration obtainable as stabile solution” value ([3]; pH raised with glucose, with 2 mg/mL Carbidopa addition) was 20 mg/mL and the “Levodopa blood concentrations during the day” value (patient; same patient, one day of continuous intravenous infusion) was “some fluctuations of the Levodopa blood concentrations occurred”. The clinical effect (patient; subcutaneous infusion) was “positive clinical effect; also recorded: good clinical effect”, the “distribution of Levodopa to the blood” value (patient; subcutaneous infusion) was “fast distribution of Levodopa to the blood with measurable concentrations” and the “dose dependence of response” value (patient; subcutaneous infusions, one patient) was “responded in a dose dependant manner”.
